Laboratory results reported in patent publication US20150160193A1, “TUMOR CELL ISOLATION/PURIFICATION PROCESS AND METHODS FOR USE THEREOF” (DIATECH ONCOLOGY, priority 2012, published 2015).
Like-named read-outs stand apart in the source and are kept apart here. *1 amine or outer side, *2 acyl side, *3 side chain or, on linkers, in order; H or OH if unused. Where a SMILES comes first, the peptide text is derived from it. Bridges are numbered along the chain shown (N, C = ends). Roman numbers before positions name the chains, in order. [ ]: non-standard residue; d: D form. Actinocin(9to1) = Cc1c2oc3c(C)ccc(C(=O)[*:1])c3nc-2c(C(=O)[*:2])c(N)c1=O; NMeV = CN[C@H](C(=O)O)C(C)C; Sar = CNCC(=O)O

Tests used:
[1] = tested on: neoplastic cells collected from spleen and abdominal tumor biopsy specimens; assay: MiCK assay, patient specific cancer cell testing (Example 10); format: cell-based, human
Protocol: The experiments were conducted on neoplastic cells collected from spleen and abdominal tumor biopsy specimens from a person. The tumor specimens were of an unknown primary. The experiment consisted of using a MiCK assay, according to the present disclosure, to test the effectiveness of 37 potential anti-cancer drugs, combinations of these drugs, and various concentrations of these drugs.
Apoptotic readings greater than 5.0KU in the MiCK assay are considered to be highly sensitive and are associated with a good clinical response. […] It should be noted that the alkylating agents cyclophosphamide and ifosfamide require hepatic metabolic transformation to their active metabolite, 4HC and 4HI respectively, and therefore cannot be tested directly in vitro. For the MiCK assay their active metabolites, 4HC and 4HI respectively were used.

[2] = tested on: Purified breast cancer cells from 67 patient (Pt) biopsies; assay: MiCK assay of drug-induced apoptosis, breast cancer specimens; format: cell-based, human; conditions: for KU Mean / KU Median: kinetic units of apoptosis; for KU Mean: mean over N patient samples (at least 9 per drug); for KU Median: median over N patient samples; for Mean Difference (95% CI) of KU vs Vincristine: drug minus Vincristine; for Mean Difference (95% CI) of KU vs Doxo: paired t-test, drug minus Doxo
Protocol: Apoptosis(KU)=(VmaxDrug Candidate Treated−VmaxControl)×60×X/(ODcontrol−ODblank)
Within 24 to 48 hours of collection, the specimen was minced, digested with 0.25% trypsin and 0.08% DNase for 1-2 hours at 37 C.°, and then filtered through a 100 micrometer cell strainer. When necessary, non-viable cells were removed by density gradient centrifugation. The cell suspension was then incubated for 30 min at 37° C. in a tissue culture flask to remove macrophages by adherence. For epithelial tumors lymphocytes were removed by 30 minute incubation with CD2 antibody conjugated magnetic beads for T lymphocytes and CD19 antibody conjugated magnetic beads for B lymphocytes. Remaining macrophages were removed, if necessary, using CD14 antibody conjugated magnetic beads. The final cell suspension was plated into a 96-well half-area plate, 120 microliter aliquot per well. The plate was incubated overnight at 37° C. with 5% carbon dioxide humidified atmosphere. 5×10^4 to 1.5×10^5 cells were seeded per well depending on the cell volume to give adequate well-bottom coverage.
Within 24 to 48 hours of collection, the specimen was treated as follows in order to purify and isolate cells from solid tumors: • Take the specimen out of the transport tube. • Put in a petri dish in 13 ml of PBS+high concentration of antibiotics (200 units/ml Penicillin+200 μg/ml streptomycin) and take measurements and picture of the specimen. […] In that case, one may make the determination to do a “pre-filtration” using sterile gauze over a 50 ml tube. Then proceed with the cell strainer filtration process referenced above. • Centrifuge the filtered cell suspension 1500 RPM 5 min • Discard the supernatant. To the pellet, add 5 ml of red blood cell lysis solution (standard NH4Cl containing lysis solution: Nh4Cl0.15M+KHCO3 10 mM+EDTA-4Na 0.1 mM, pH 7.2), incubate 2-3 min and add 5 ml of RPMI 10% FBS. • Centrifuge 5 min 1500 RPM. Resuspend the pellet in RPMI 10% FBS (1-10 ml depending on the pellet size). • Collect the second fraction in the enzyme and repeat the steps above. • Check the viability of all fractions and pool. Do a cytospin stain with Wright Giemsa to verify the cell content of the population. NOTE: this is done numerous times during the process of purification. • 3) When necessary, non-viable cells were removed by density gradient centrifugation. • Density gradient centrifugation (optiprep): first layer=2 ml cells+4.45 ml optiprep 40% in RPMI, second layer=optiprep 22.5% in RPMI, 3rd layer=0.5 ml of RPMI. Centrifuge at 2000 RPM for 20 min • Collect the viable cell layer, add 10 ml of RPMI 10% FBS, centrifuge at 1500 RPM for 5 min • Resuspend the pellet in RPMI 10% FBS (volume depends on the pellet size and on the next step required). • If mucin is present in the specimen: resuspend the pellet in 10 ml of PBS+20 mM DTT and incubate at 4° C. for 30 min to disintegrate the mucin. Wash with RPMI 1500 rpm for 5 min Resuspend the pellet in RPMI 10% FBS. • If the specimen is highly necrotic with presence of debris: Percoll 20% in HBSS, centrifuge at 800×g for 10 min • 4) The cell suspension was then incubated for 20 min at 37° C. in a tissue culture flask to remove macrophages by adherence. • The size and quantity of the flask and the volume used depends on the amount of cells.

[3] = person, tumor of unknown primary, maximum apoptotic response over the concentrations tested
[4] = KU compared per patient, % of 14 patients
[5] = KU compared per patient, % of 34 patients
[6] = KU compared per patient, % of 13 patients

| Molecule | Max Resp. (KU) [1, 3] [KU] | KU Mean [2] [KU] | KU Median [2] [KU] | also measured |
| --- | --- | --- | --- | --- |
| Nc1nc2[nH]cc(CCc3ccc(C(=O)N[C@@H](CCC(=O)O)C(=O)O)cc3)c2c(=O)[nH]1 [Alimta, pemetrexed] | 0.6 |  |  |  |
| CCc1c2c(nc3ccc(OC(=O)N4CCC(N5CCCCC5)CC4)cc13)-c1cc3c(c(=O)n1C2)COC(=O)[C@]3(O)CC [Irinotecan] | 2.6 |  |  |  |
| CN(Cc1cnc2nc(N)nc(N)c2n1)c1ccc(C(=O)N[C@@H](CCC(=O)O)C(=O)O)cc1 [Methotrexate, methotrexate] | 0.8 | 0.9 | 0.9 |  |
| CCC1=C[C@@H]2CN(C1)Cc1c([nH]c3ccccc13)[C@@](C(=O)OC)(c1cc3c(cc1OC)N(C)[C@H]1[C@@](O)(C(=O)OC)[C@H](OC(C)=O)[C@]4(CC)C=CCN5CC[C@]31[C@@H]54)C2 [Vinor, vinorelbine] | 3.1 | 1.8 | 1.5 | Max (Vcr or Vnbl) > Vinor + 0.57 [2, 4]: (0%); Vcr and Vnbl and Vinor < 1 [2, 4]: (14%); Vinor = Max (Vcr or Vnbl) +/− 0.57 and both > 1 [2, 4]: (36%); Vinor > Max (Vcr or Vnbl) by more than 0.57 and Vinroel > 1 [2, 4]: (29%); Mean Difference (95% CI) of KU vs Vincristine ([2]; patient pairwise comparison): 0.63 KU; Mean Difference (95% CI) of KU vs Vincristine ([2]; patient pairwise comparison, listed as vinorelbine): APOP>vincristine; Mean Difference (95% CI) of KU vs Vnbl ([2]; patient pairwise comparison, drug minus Vnbl): 0.14 KU |
| COc1cccc2c1C(=O)c1c(O)c3c(c(O)c1C2=O)C[C@@](O)(C(=O)CO)C[C@@H]3O[C@H]1C[C@H](N)[C@@H](O)[C@H](C)O1 [Epi, Epirubicin] | 3.8 | 2.5 | 2.1 | Doxo and Epi < 1 [2, 5]: 1/34 (3%); Epi = Doxo +/− 0.57 and both > 1 [2, 5]: 22/34 (65%); Epi > Doxo by more than 0.57 and Epi > 1 [2, 5]: 6/34 (18%); Mean Difference (95% CI) of KU vs Mitox ([2]; patient pairwise comparison, drug minus Mitox): 0.83 KU; Mean Difference (95% CI) of KU vs Doxo ([2]; patient pairwise comparison): 0.37 KU; Mean Difference (95% CI) of KU vs Doxo ([2]; patient pairwise comparison, listed as epirubicin): APOP>doxorubicin |
| CCN(CC)CCNC(=O)c1c(C)[nH]c(/C=C2\C(=O)Nc3ccc(F)cc32)c1C [Sunifinib, Sunitinib] | 7.9 |  |  |  |
| CC[C@]1(O)C[C@@H]2CN(CCc3c([nH]c4ccccc34)[C@@](C(=O)OC)(c3cc4c(cc3OC)N(C)[C@H]3[C@@](O)(C(=O)OC)[C@H](OC(C)=O)[C@]5(CC)C=CCN6CC[C@]43[C@@H]65)C2)C1 [Vnbl, Vinblastine] | 1.2 | 1.8 | 1.5 | Mean Difference (95% CI) of KU vs Vincristine ([2]; patient pairwise comparison): 0.14 KU |
| CC(C)C[C@H](NC(=O)[C@H](Cc1ccccc1)NC(=O)c1cnccn1)B(O)O [Velcade] | 3.8 |  |  |  |
| COc1cc([C@@H]2c3cc4c(cc3[C@@H](O[C@@H]3O[C@@H]5CO[C@@H](C)O[C@H]5[C@H](O)[C@H]3O)[C@H]3COC(=O)[C@H]23)OCO4)cc(OC)c1O [Etoposide, etoposide] | 0.8 | 1.3 | 1.3 |  |
| C/C(=C\c1csc(C)n1)[C@@H]1C[C@@H]2O[C@]2(C)CCC[C@H](C)[C@H](O)[C@@H](C)C(=O)C(C)(C)[C@@H](O)CC(=O)N1 [Ixabepilone, ixabepilone] |  | 1.3 | 1.2 |  |
| O=C1c2c(O)ccc(O)c2C(=O)c2c(NCCNCCO)ccc(NCCNCCO)c21 [Mitox, mitoxantrone] |  | 1.2 | 1.2 |  |
| Cc1ccc(NC(=O)c2ccc(CN3CCN(C)CC3)cc2)cc1Nc1nccc(-c2cccnc2)n1 [Gleevec (imatinib), imatinib] | 1.5 |  |  |  |
| O=c1[nH]cc(F)c(=O)[nH]1 [5FU, 5-fluorouracil] | 0.3 | 0.7 | 0.6 | 5fu > Xeloda + 0.57 [2, 6]: 2/13 (15%) |
| CNNCc1ccc(C(=O)NC(C)C)cc1 [Procarbazine] | 1.3 |  |  |  |
| Nc1ccn([C@@H]2O[C@H](CO)[C@@H](O)C2(F)F)c(=O)n1 [Gemzar, gemcitabine] | 0.8 | 1.0 | 0.8 |  |
| CCCCCOC(=O)Nc1nc(=O)n([C@@H]2O[C@H](C)[C@@H](O)[C@H]2O)cc1F [Xeloda, capcitabine] |  | 0.7 | 0.7 | 5fu and Xeloda < 1 [2, 6]: 8/13 (62%); Xeloda = 5fu +/− 0.57 and both > 1 [2, 6]: 0/13 (0%); Xeloda > 5fu by more than 0.57 and Xeloda > 1 [2, 6]: 2/13 (15%); Mean Difference (95% CI) of KU vs 5FU ([2]; patient pairwise comparison, drug minus 5FU): 0.26 (−0.26 to 0.77) KU |
| C=C1C[C@@H]2CC[C@@]34C[C@H]5O[C@H]6[C@@H](O3)[C@H]3O[C@H](CC[C@@H]3O[C@H]6[C@H]5O4)CC(=O)C[C@@H]3[C@@H](OC)[C@@H](C[C@H](O)CN)O[C@H]3C[C@H]3O[C@@H](CC[C@@H]1O2)C[C@@H](C)C3=C [Eribulin, eribulin] |  | 1.0 | 1.0 |  |
| COc1cccc2c1C(=O)c1c(O)c3c(c(O)c1C2=O)C[C@@](O)(C(C)=O)C[C@@H]3O[C@H]1C[C@H](N)[C@H](O)[C@H](C)O1 [Danorubicin, Daunorubicin] | 3.1 |  |  |  |
| CN(C)/N=N/c1[nH]cnc1C(N)=O [Dacarbazine] | 0.6 |  |  |  |
| Cn1nnc2c(C(N)=O)ncn2c1=O [Temozolomide] | 1.5 |  |  |  |
| CNC(=O)c1cc(Oc2ccc(NC(=O)Nc3ccc(Cl)c(C(F)(F)F)c3)cc2)ccn1 [Sorafenib] | 3.8 |  |  |  |
| O=NN(CCCl)C(=O)NC1CCCCC1 [CCNU] | 0.8 |  |  |  |
| Cc1c2oc3c(C)ccc(C(=O)N[C@@H]4C(=O)N[C@H](C(C)C)C(=O)N5CCC[C@H]5C(=O)N(C)CC(=O)N(C)[C@@H](C(C)C)C(=O)O[C@@H]4C)c3nc-2c(C(=O)N[C@@H]2C(=O)N[C@H](C(C)C)C(=O)N3CCC[C@H]3C(=O)N(C)CC(=O)N(C)[C@@H](C(C)C)C(=O)O[C@@H]2C)c(N)c1=O [Dactinomycin] (I: T[dV]P[Sar][NMeV] / II: T[dV]P[Sar][NMeV]; ester I:1-I:C, II:1-II:C; linker I:N-II:N via Actinocin(9to1)) | 4.0 |  |  |  |
| C#Cc1cccc(Nc2ncnc3cc(OCCOC)c(OCCOC)cc23)c1 [Tarceva] | 0.7 |  |  |  |
| Bleomycin |  |  |  | Max Resp. (KU) [1]: 1.1 KU |
| N[C@@H](Cc1ccc(N(CCCl)CCCl)cc1)C(=O)O [Melphalan] | 5.3 |  |  |  |
| Nc1ncn([C@@H]2O[C@H](CO)[C@@H](O)[C@H]2O)c(=O)n1 [Vidaza] | 4.3 |  |  |  |
